Reference: ChEMBL document CHEMBL1201862, “PubChem BioAssay data set” (2004)
Activity calls are given as the source filed them.

Legend:
Paired box protein Pax-8 = Paired box protein Pax-8 (Homo sapiens, UniProt Q06710); assay: PAX8 transcriptional activity inhibition in RMG-I – RMG-I cells, luciferase, cherry-pick, dose response (AID 687027); type: functional, cell-based;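 also: luciferase reporter driven by Pax8 target thyroperoxidase promoter measured by SteadyGlo luminescence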
Cytochrome P450 3A4 = Cytochrome P450 3A4 (Homo sapiens, UniProt P08684);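 also: CYP3A4 tested as one member of a cytochrome P450 panel screen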
Chain of Cytochrome P450 3A4 (P08684 whole entry): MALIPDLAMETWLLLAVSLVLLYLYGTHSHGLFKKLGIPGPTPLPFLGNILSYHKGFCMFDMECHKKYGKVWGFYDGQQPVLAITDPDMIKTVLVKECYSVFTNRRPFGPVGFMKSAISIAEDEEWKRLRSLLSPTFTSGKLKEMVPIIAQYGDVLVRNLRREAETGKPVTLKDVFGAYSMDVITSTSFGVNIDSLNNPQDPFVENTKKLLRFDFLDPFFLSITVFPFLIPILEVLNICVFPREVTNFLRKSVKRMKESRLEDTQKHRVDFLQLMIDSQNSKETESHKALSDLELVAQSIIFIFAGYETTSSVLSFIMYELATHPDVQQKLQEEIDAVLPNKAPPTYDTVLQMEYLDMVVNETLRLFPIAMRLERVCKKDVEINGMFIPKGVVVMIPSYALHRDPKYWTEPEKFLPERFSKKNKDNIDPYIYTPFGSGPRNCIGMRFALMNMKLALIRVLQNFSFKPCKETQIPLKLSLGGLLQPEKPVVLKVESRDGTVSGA

Cytochrome P450 2C9 = Cytochrome P450 2C9 (Homo sapiens, UniProt P11712)
Chain of Cytochrome P450 2C9 (P11712 whole entry): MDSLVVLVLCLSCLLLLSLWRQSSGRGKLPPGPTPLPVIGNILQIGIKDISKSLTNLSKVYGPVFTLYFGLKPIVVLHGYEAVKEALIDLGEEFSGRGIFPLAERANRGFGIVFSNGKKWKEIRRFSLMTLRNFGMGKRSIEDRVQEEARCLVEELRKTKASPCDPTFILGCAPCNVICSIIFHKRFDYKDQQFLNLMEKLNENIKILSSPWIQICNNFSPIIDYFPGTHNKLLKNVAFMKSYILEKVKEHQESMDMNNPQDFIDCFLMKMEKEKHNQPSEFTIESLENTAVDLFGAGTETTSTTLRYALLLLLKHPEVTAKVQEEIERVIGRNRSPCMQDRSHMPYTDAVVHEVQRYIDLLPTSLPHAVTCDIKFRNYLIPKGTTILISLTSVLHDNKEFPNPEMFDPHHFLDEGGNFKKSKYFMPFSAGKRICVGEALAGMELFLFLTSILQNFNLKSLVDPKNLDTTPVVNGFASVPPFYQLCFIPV

Cytochrome P450 1A2 = biological target: T1, Cytochrome P450 1A2 (Homo sapiens, UniProt P05177);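 also: PubChem cytochrome P450 panel assay, CYP1A2 panel member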
T1 sequence (P05177 whole entry): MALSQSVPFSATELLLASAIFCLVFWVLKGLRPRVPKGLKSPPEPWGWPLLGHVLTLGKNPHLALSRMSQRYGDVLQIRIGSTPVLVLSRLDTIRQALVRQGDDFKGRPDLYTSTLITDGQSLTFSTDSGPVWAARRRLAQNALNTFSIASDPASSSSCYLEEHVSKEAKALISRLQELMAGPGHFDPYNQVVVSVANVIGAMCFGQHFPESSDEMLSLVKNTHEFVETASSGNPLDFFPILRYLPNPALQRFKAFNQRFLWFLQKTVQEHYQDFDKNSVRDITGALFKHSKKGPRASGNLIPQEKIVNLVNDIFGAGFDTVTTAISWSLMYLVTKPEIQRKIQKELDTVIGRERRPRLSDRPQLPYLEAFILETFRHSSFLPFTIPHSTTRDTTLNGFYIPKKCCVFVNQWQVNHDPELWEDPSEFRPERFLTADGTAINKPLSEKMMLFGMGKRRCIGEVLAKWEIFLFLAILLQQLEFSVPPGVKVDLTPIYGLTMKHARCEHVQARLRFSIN

Cytochrome P450 2C19 = Cytochrome P450 2C19 (Homo sapiens, UniProt P33261); assay: Cytochrome panel assay with activity outcomes. Panel member name: p450-cyp2c19 Compounds with AC50 equal or less than 10 uM are considered active; type: functional
Chain of Cytochrome P450 2C19 (P33261 whole entry): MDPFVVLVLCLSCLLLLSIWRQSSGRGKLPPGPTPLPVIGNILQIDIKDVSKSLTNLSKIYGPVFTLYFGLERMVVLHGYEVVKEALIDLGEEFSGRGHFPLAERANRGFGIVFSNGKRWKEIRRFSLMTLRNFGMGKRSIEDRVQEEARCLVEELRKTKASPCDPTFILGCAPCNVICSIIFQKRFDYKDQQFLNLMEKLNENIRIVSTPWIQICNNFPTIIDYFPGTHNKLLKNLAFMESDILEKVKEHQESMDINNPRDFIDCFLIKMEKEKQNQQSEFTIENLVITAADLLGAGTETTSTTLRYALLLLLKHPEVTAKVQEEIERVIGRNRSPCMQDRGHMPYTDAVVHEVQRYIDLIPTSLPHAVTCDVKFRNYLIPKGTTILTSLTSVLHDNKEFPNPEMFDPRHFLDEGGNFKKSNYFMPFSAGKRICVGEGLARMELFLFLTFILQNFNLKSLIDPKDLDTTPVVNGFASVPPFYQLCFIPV

[1] = viability of uninfected HEp-2 cells – cell-based, HTS, cytotoxicity control for RSV inhibitor project, dose response (AID 2410); type: functional; settings: human respiratory syncytial virus
[2] = Luminescence Cell-Based Dose Retest to Confirm Inhibitors of Cancer Stem Cells. [Related pubchem assays (depositor defined):AID2717, AID2721]; type: functional; settings: Homo sapiens
[3] = biological target: T2, Corticotropin-releasing factor receptor 2/Corticotropin-releasing factor-binding protein (Homo sapiens, UniProt P24387+Q13324); assay: activators of CRF receptor 2 with binding protein – uHTS hits, confirmation (AID 602473); type: functional; settings: read-out: EC50_Mean
T2 sequence (Q13324 whole entry): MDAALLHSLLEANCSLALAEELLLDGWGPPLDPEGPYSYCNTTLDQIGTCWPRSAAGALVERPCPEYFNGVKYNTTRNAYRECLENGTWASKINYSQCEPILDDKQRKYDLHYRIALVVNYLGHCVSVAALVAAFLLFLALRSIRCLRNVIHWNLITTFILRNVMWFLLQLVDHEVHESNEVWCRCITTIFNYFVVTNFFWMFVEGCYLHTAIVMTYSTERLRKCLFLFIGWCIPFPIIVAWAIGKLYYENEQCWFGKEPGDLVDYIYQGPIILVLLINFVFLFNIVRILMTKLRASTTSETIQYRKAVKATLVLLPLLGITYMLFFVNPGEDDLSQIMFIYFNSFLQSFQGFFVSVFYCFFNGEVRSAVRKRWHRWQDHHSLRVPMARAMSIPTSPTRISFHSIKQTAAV
T2 sequence (P24387 whole entry): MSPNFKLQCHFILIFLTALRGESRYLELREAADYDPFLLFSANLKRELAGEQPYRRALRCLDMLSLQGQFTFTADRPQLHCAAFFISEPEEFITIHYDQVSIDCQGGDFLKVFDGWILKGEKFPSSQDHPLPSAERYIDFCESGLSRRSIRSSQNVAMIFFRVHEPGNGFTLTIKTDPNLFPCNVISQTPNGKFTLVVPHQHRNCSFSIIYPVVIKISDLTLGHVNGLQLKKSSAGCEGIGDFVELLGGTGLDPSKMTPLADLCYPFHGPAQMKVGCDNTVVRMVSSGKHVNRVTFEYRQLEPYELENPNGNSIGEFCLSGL

INS1 = assay: INS-1E survival protection against cytokine death – cell-based, luminescence, retest, dose response (AID 449756); type: functional; settings: Rattus norvegicus;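 also: cell death triggered by IL-1 beta plus TNF-alpha plus IFN-gamma mixture; protective hits raise ATP signal compared with cytokine alone wells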
[4] = biological target: T3, Heat shock factor protein 1 (Mus musculus, UniProt P38532); assay: decrease of HSF1-responsive luciferase luminescence – cell-based, NIH3T3, dose retest, confirmation (AID 2382); type: functional;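 also: NIH3T3 fibroblasts with HSF1-driven luciferase reporter stressed by proteasome inhibitor MG132; luminescence from HSF1-driven luciferase expression after 8 hours of MG132 stress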
T3 sequence (P38532 whole entry): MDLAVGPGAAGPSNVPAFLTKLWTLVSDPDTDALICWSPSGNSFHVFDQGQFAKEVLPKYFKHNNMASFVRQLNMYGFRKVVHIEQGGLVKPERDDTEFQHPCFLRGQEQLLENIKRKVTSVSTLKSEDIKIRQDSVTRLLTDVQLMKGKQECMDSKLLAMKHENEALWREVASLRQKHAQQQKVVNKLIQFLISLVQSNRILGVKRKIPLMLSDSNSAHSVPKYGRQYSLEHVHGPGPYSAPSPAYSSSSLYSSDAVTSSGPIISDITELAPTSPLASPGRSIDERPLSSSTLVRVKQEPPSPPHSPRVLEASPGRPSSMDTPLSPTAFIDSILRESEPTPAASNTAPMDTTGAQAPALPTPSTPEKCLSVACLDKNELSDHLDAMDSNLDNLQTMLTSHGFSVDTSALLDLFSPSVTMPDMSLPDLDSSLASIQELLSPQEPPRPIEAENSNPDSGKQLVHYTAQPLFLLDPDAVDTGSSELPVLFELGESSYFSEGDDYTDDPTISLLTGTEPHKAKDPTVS

[5] = Trypanosoma cruzi growth suppression in host cells – NIH3T3 host cells, beta-gal luminescence, confirmation (AID 2044); type: functional, cell-based;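 also: intracellular parasites grown in NIH/3T3 mouse fibroblasts as host cells; luminescent beta-galactosidase reporter signal from transgenic T. cruzi replicating inside host cells; inhibitors lower the luminescence signal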
Streptococcus = assay: GAS UMAA2166 growth inhibition – luminescence, BacTiterGlo, counter-screen for streptokinase expression inhibitor project, dose response (AID 1915); type: functional, organism-based;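 also: potency for reduction of bacterial viability or growth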
[6] = test system: Streptococcus sp. 'group A'; assay: Streptococcus pyogenes SK(-)GAS viability under kanamycin – luminescence, BacTiterGlo, confirmation, counter-screen for streptokinase expression inhibitor project, dose response (AID 1900); type: functional, organism-based
[7] = NIH3T3 cell viability loss – ATP luminescence, mouse fibroblasts, counter-screen, dose response (AID 2010); type: functional, cell-based;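 also: cells exposed to compound for about 90 hours before reading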

Chain of Paired box protein Pax-8 (Q06710 whole entry): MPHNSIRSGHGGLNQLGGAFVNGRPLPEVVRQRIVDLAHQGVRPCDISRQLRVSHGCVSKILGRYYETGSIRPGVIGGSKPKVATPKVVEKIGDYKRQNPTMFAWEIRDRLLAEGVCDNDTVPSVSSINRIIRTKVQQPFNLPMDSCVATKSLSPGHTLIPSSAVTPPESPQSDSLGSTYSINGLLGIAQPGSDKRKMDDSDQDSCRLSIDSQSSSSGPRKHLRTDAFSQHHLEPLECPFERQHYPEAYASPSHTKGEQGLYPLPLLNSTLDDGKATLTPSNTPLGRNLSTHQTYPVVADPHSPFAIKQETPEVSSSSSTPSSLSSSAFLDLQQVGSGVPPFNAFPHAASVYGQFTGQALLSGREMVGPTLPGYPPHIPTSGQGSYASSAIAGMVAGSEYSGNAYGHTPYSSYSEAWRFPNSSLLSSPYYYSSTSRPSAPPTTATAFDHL

## C[C@@H]1CN([C@H](C)CO)C(=O)c2cc(NC(=O)Nc3ccc(C(F)(F)F)cc3)ccc2O[C@@H](C)CCCCO[C@H]1CN(C)S(=O)(=O)c1ccc(F)cc1
Paired box protein Pax-8
  AC50: 6.53 µM (active)

## CN(Cc1cc(Br)cc(Br)c1O)Cc1c(O)ccc2ccccc12
Cytochrome P450 3A4
  AC50: 3.98 µM (inconclusive)
Cytochrome P450 2C9
  AC50: 3.16 µM (inconclusive)
Cytochrome P450 1A2
  AC50: 1.26 µM (inconclusive)

## COC(=O)N1CCC2(CCCN(c3ccncc3)C2)CC1
Cytochrome P450 2C19
  AC50: inconclusive

## CCOC(=O)CSc1nnc(Cc2cc(O)nc(O)n2)n1-c1cccc(OC)c1
Cytochrome P450 2C19
  AC50: inconclusive
Cytochrome P450 3A4
  AC50: 22.4 µM (inconclusive)

## Cc1nnc(-c2cnn(-c3ccccc3)c2N)n1Cc1ccncc1
Cytochrome P450 2C19; read-out: AC50
  AC50: 11.2 µM (inconclusive)
Cytochrome P450 3A4
  AC50: 15.8 µM (inconclusive)
Cytochrome P450 1A2
  AC50: 11.2 µM (inconclusive)

## C/C(N)=C(/C#N)C(=O)CSc1nnc(COc2cc(C)ccc2C)o1
Cytochrome P450 2C9
  AC50: 7.08 µM (inconclusive)
Cytochrome P450 1A2
  AC50: 4.47 µM (inconclusive)

## O=C(Nc1cccc2ncccc12)c1cccc(F)c1
Cytochrome P450 3A4
  AC50: 22.4 µM (inconclusive)
Cytochrome P450 1A2
  AC50: 15.8 µM (inconclusive)

## N#CC1(c2ccc(NC(=O)c3ccccc3F)cc2)CCCC1
[1]
  CC50: > 50 µM (active)

## Cc1cccc(OC2(c3ccccc3)OC(=O)c3ccccc32)c1C (stereo not given)
Cytochrome P450 3A4
  AC50: 28.2 µM (inconclusive)
Cytochrome P450 1A2
  AC50: 14.1 µM (inconclusive)

## CCCCCn1c(SCc2ccncc2)nc2cc(C(=O)NCc3ccco3)ccc2c1=O
[1]
  CC50: 48.3 µM (active)

## COCCNC(=O)C(c1ccc(C)o1)N(CC1CCCO1)C(=O)Cn1nnc2ccccc21 (stereo not given)
Cytochrome P450 2C19
  AC50: inconclusive
Cytochrome P450 3A4
  AC50: 15.8 µM (inconclusive)
Cytochrome P450 1A2
  AC50: 12.6 µM (inconclusive)

## CC1CCCCN1c1cc(C#N)c(C#N)cc1[N+](=O)[O-] (stereo not given)
[2]
  AC50: 0.174 µM (active)
Cytochrome P450 3A4
  AC50: 15.8 µM (inconclusive)
Cytochrome P450 2C9
  AC50: 5.01 µM (inconclusive)
Cytochrome P450 1A2
  AC50: 3.16 µM (inconclusive)

## CCCCCCNC(=O)C(C#N)c1nc2ccccc2nc1N1CCCC1 (stereo not given)
[3]
  EC50: 5.12 µM (active)

## CCCCN(C)CCNC(=O)c1cc2c(-c3ccccc3F)nn(C)c2s1
INS1
  AC50: > 260 µM (inactive)
[4]
  EC50: > 195 µM (not active)

## CN(Cc1c(F)cccc1Cl)C(=O)CCc1c[nH]c2ccccc12
[1]
  CC50: 30 µM (active)

## Cc1cccc(NC(=NS(=O)(=O)c2ccccc2)C(F)(F)F)c1
Cytochrome P450 2C19; read-out: AC50
  AC50: 22.4 µM (inconclusive)
Cytochrome P450 3A4
  AC50: 25.1 µM (inconclusive)

## COc1ccccc1N1CCN(C(=O)c2sc3ncnc(N4CCN(c5ccccn5)CC4)c3c2C)CC1
[1]
  CC50: 12.2 µM (active)

## COc1ccc(-c2nn(-c3ccccc3)cc2/C=N/NS(=O)(=O)c2ccccc2)cc1
[1]
  CC50: 17.8 µM (active)

## COC(=O)c1c(-c2ccc(C)cc2)csc1NC(=O)c1c(-c2ccccc2)noc1C
[1]
  CC50: 26.5 µM (active)

## C[C@@H](CN1CCC(Cc2ccccc2)CC1)[C@H](O)c1ccc(O)cc1
Cytochrome P450 1A2
  AC50: 12.6 µM (inconclusive)

## Cn1c(SCc2ccccc2Cl)nc2c1c(=O)[nH]c(=O)n2C
[1]
  CC50: > 50 µM (active)

## CN(Cc1ccco1)c1ccnc(-c2ccoc2)n1
Cytochrome P450 2C19; read-out: AC50
  AC50: 25.1 µM (inconclusive)

## CCCn1nc(Oc2nc(NCC)nc(NCC)n2)ccc1=O
Cytochrome P450 2C19; read-out: AC50
  AC50: 31.6 µM (inconclusive)
Cytochrome P450 1A2
  AC50: 15.8 µM (inconclusive)

## O=C(O)/C=C\c1ccc(Cn2ccnc2)cc1
Cytochrome P450 1A2
  AC50: 12.6 µM (inconclusive)

## CCCCC1=NN2C(=N)CC(=O)N=C2S1
Cytochrome P450 2C9
  AC50: 2.51 µM (inconclusive)
Cytochrome P450 1A2
  AC50: 25.1 µM (inconclusive)

## Cc1ccc(NC(S)=NCc2ccc3[nH]c4c(c3c2)CCCC4)cc1
[1]
  CC50: 9.29 µM (active)

## CCCCn1cnc2c(cnn2-c2ccc(F)cc2)c1=O
Cytochrome P450 2C19; read-out: AC50
  AC50: 2.51 µM (inconclusive)

## COCCn1c(=O)c(-c2ccc(F)cc2)nc2cnc(Nc3cccc(OC)c3)nc21
Cytochrome P450 1A2
  AC50: 3.16 µM (inconclusive)

## N=c1c(-c2nc3ccccc3[nH]2)cc(C(=O)c2cccs2)nn1-c1ccccc1
[5]
  EC50: 0.39 µM (active)
[1]
  CC50: 15.3 µM (active)
Streptococcus
  EC50: 5.63 µM (active)
[6]
  EC50: 1.51 µM (active)
[7]
  EC50: > 60 µM (not active)

## O=C(Nc1ccc(N2CCCCC2)c(Cl)c1)c1nc[nH]n1
[1]
  CC50: 16.6 µM (active)

## CCc1ccccc1S(=O)(=O)Cc1ccc(C(=O)N2CCN(c3ccccc3OC)CC2)o1
[1]
  CC50: > 50 µM (active)

## COc1ccc(N(CC(=O)NC2CCCCCCC2)S(=O)(=O)c2c(C)nn(C)c2C)cc1
[4]
  EC50: > 195 µM (not active)

## Cc1cc(C)c2nc(C(F)(F)F)c(C#N)c(N)c2c1
[4]
  EC50: 3.15 µM (active)

## C[C@@H]1CCCCO[C@H](CN(C)C(=O)C2CCCCC2)[C@@H](C)CN([C@@H](C)CO)C(=O)c2cc(NC(=O)Nc3ccccc3)ccc2O1
Paired box protein Pax-8
  AC50: 5.39 µM (active)

## O=C(c1ccco1)N1CCC2(CCCN(c3ccccn3)C2)CC1
Cytochrome P450 3A4
  AC50: 15.8 µM (inconclusive)
Cytochrome P450 1A2
  AC50: 10 µM (inconclusive)

## COc1cc(OC)cc(C(=O)Nc2nnc(N=C(S)Nc3ccccc3)s2)c1
[1]
  CC50: 8.31 µM (active)
Streptococcus
  EC50: 30.7 µM (active)
[6]
  EC50: 9.71 µM (active)

## CCC(C)Nc1nc(OCC(F)(F)F)nc(OCC(F)(F)F)n1 (stereo not given)
Cytochrome P450 2C19; read-out: AC50
  AC50: 3.16 µM (inconclusive)

## O=C1NN=C(c2ccc(Cl)cc2)CC1c1cccc(Cl)c1 (stereo not given)
[1]
  CC50: 30.2 µM (active)

## COc1ccc(-n2c(=O)c(C)nc3cnc(Nc4ccccc4)nc32)cc1
Cytochrome P450 2C9
  AC50: 20 µM (inconclusive)
Cytochrome P450 1A2
  AC50: 5.01 µM (inconclusive)

## O=C(N1CCCCC1)N1CCN(S(=O)(=O)c2ccccc2)CC1
[4]
  EC50: 32.8 µM (active)
